In patent publication US20240360122A1, “POLYMORPHIC FORMS AND SALTS OF A GLP-1R AGONIST” (Terns (Suzhou) Biotechnology Co., Ltd., priority 2023, published 2024):

Assay: Approximate solubility in different solvents at RT
Assay type: physicochemical
Procedure: For each experiment, approximately 2 mg of sample was added into a 3-mL glass vial. Corresponding solvents were then added stepwise (50/50/200/700/1000 μL) into the vials until the solids were dissolved visually or a total volume of 2 mL was reached. Solubility results summarized in Table 64 to Table 66 were used to guide the solvent selection in polymorph screening design.

For `N#Cc1ccc(COc2cccc(C3CCN(Cc4nc5ccc(C(=O)O)cc5n4Cc4cncs4)CC3)n2)c(F)c1` [Freeform Type D], the Approximate solubility (1,4-Dioxane, RT) was “S < 1.1 mg/mL”, the Approximate solubility (2-MeTHF, RT) was “S < 1.0 mg/mL” and the Approximate solubility (Anisole, RT) was “S < 1.0 mg/mL”. The Approximate solubility (CHCl3, RT) was “S < 1.1 mg/mL”, the Approximate solubility (CPME, RT) was “S < 0.9 mg/mL” and the Approximate solubility (DMSO, RT) was “S > 44.0 mg/mL”. For the same molecule, the Approximate solubility (H2O, RT) was “S < 1.1 mg/mL”, the Approximate solubility (IPA, RT) was “S < 1.1 mg/mL” and the Approximate solubility (MTBE, RT) was “S < 1.1 mg/mL”. For the same molecule, the Approximate solubility (Toluene, RT) was “S < 1.0 mg/mL” and the Approximate solubility (n-Heptane, RT) was “S < 1.0 mg/mL”.
